The test system of series [1] is Mycobacterium tuberculosis. The series is described as follows: Antitubercular activity against Mycobacterium tuberculosis H37Rv after 1 week by microplate alamar blue assay. The class given is functional. As to conditions: 168 h. A general note: Alamar Blue is a resazurin reagent that responds to reducing activity.
A short description of series [2]: Cytotoxicity against mouse RAW264.7 cells assessed as growth inhibition after 48 hrs by MTT assay. The class given is cell-based. (In general: Formazan colour is commonly taken as a measure of viable cells.)
Series [3] can be described thus: Cytotoxicity against mouse RAW264.7 cells assessed as growth inhibition at 25 ug/ml after 48 hrs by MTT assay relative to control. Particulars: read-out: GI. It counts as cell-based.

Converted amounts (≈) assume the structure as drawn.

One may read the MIC as the lowest concentration found to suppress growth. Low readings indicate inhibition by little substance, high ones a need for much substance. Usually GI50 stands for the concentration that inhibits growth by half.

The compound `Cc1cccc(Cn2c(=O)c(C(=O)Nc3ccc(Br)cc3)c(-c3ccccc3)c3cc(Cl)ccc32)c1` gave an MIC in series [1] of over 25 µg/mL.
The same measure, in the same setting: next, `O=C(NCCN1CCCCC1)c1c(-c2ccccc2)c2cc(Cl)ccc2[nH]c1=O`: 25 µg/mL (≈ 61 µM); `O=C(Nc1ccc(OC(F)(F)F)cc1)c1c(-c2ccccc2)c2ccccc2n(Cc2ccccc2)c1=O`: over 25 µg/mL.
In the case of `COC(=O)C(Cc1c[nH]c2ccccc12)NC(=O)c1c(-c2ccccc2)c2cc(Cl)ccc2[nH]c1=O` (stereo not given), in series [2], the concentration for 50% growth inhibition (GI50) at 48 h turned out to be 104 µg/mL (≈ 209 µM). For the same compound, the lowest concentration to inhibit growth in series [1] (MIC) was 6.25 µg/mL (≈ 12.5 µM). Also, in series [3], the inhibition at 48 h, 25 ug/ml worked out at 21.5%.
The like results for `O=C(Nc1ccc(N2CCOCC2)cc1)c1c(-c2ccccc2)c2cc(Cl)ccc2[nH]c1=O` were, in that order, 96.4 µg/mL (≈ 210 µM), 6.25 µg/mL (≈ 13.6 µM) and 18.6%.
On to `O=C(NCCc1c[nH]c2ccccc12)c1c(-c2ccccc2)c2ccccc2[nH]c1=O`, for which 12.5 µg/mL (≈ 30.7 µM) was the least that counted as inhibitory in series [1] (MIC).
On the same count and under the same terms, next, `O=C(Nc1ccc(F)cc1)c1c(-c2ccccc2)c2ccccc2n(Cc2ccccc2)c1=O`: over 25 µg/mL; `O=C(Nc1ccc2c(c1)OCCO2)c1c(-c2ccccc2)c2ccccc2[nH]c1=O`: 25 µg/mL (≈ 62.7 µM).
Regarding `O=C(NCCCn1ccnc1)c1c(-c2ccccc2)c2cc(Cl)ccc2[nH]c1=O`, 25 µg/mL (≈ 61.4 µM) was the least that counted as inhibitory in series [1] (MIC).
Same read-out and setting: next, `COC(=O)C(Cc1ccc(O)cc1)NC(=O)c1c(-c2ccccc2)c2cc(Cl)ccc2[nH]c1=O` (stereo not given): 12.5 µg/mL (≈ 26.2 µM).
For the compound `CO[C@H]1/C=C/O[C@@]2(C)Oc3c(C)c(O)c4c(O)c(c(/C=N/N5CCN(C)CC5)c(O)c4c3C2=O)NC(=O)/C(C)=C\C=C\[C@H](C)[C@H](O)[C@@H](C)[C@@H](O)[C@@H](C)[C@H](OC(C)=O)[C@@H]1C` [RIFAMPIN], the MIC in series [1] stood at 0.2 µg/mL (≈ 0.243 µM).
Take `O=C(NCCc1ccc(O)cc1)c1c(-c2ccccc2)c2cc(Cl)ccc2[nH]c1=O`: in series [1], the MIC was 25 µg/mL (≈ 59.7 µM).
The same measure, in the same setting: then `O=C(Nc1ccc(F)cc1)c1c(-c2ccccc2)c2ccccc2[nH]c1=O`, with 25 µg/mL (≈ 69.8 µM); and `O=C(NCCc1ccccc1)c1c(-c2ccccc2)c2cc(Cl)ccc2[nH]c1=O`, with 25 µg/mL (≈ 62.1 µM).
Still for that read-out and setting: next, `NNC(=O)c1ccncc1` [ISONIAZID]: 0.1 µg/mL (≈ 0.729 µM); `O=C(NCCN1CCOCC1)c1c(-c2ccccc2)c2cc(Cl)ccc2[nH]c1=O`: 25 µg/mL (≈ 60.7 µM); `CSc1ccc(NC(=O)c2c(-c3ccccc3)c3cc(Cl)ccc3n(Cc3cccc(C)c3)c2=O)cc1`: 12.5 µg/mL (≈ 23.8 µM).
On the same count and under the same terms, then `O=C(Nc1ccc(CO)cc1)c1c(-c2ccccc2)c2cc(Cl)ccc2[nH]c1=O`, with over 25 µg/mL; and `Cc1cccc(Cn2c(=O)c(C(=O)Nc3ccc(F)cc3)c(-c3ccccc3)c3cc(Cl)ccc32)c1`, with over 25 µg/mL.
`CC[C@@H](CO)NCCN[C@@H](CC)CO` [ETHAMBUTOL] showed an MIC in series [1] of 1.56 µg/mL (≈ 7.64 µM).
In series [1], `CSc1ccc(NC(=O)c2c(-c3ccccc3)c3ccccc3n(Cc3cccc(Cl)c3)c2=O)cc1` came in with an MIC of over 25 µg/mL.
On the same count and under the same terms, next, `O=C(Nc1cccc(F)c1)c1c(-c2ccccc2)c2cc(Cl)ccc2n(Cc2ccc(F)cc2)c1=O`: over 25 µg/mL; `CS(=O)(=O)c1ccc(NC(=O)c2c(-c3ccccc3)c3ccccc3n(Cc3cccc(Cl)c3)c2=O)cc1`: 12.5 µg/mL (≈ 23 µM).
Still for that read-out and setting: next, `Cc1cccc(Cn2c(=O)c(C(=O)Nc3ccc(Cl)cc3)c(-c3ccccc3)c3cc(Cl)ccc32)c1`: 25 µg/mL (≈ 48.7 µM).
Same read-out and setting: next, `Cc1cccc(Cn2c(=O)c(C(=O)Nc3ccc(OC(F)(F)F)cc3)c(-c3ccccc3)c3cc(Cl)ccc32)c1`: over 25 µg/mL.
Regarding `O=C(Nc1ccccc1F)c1c(-c2ccccc2)c2cc(Cl)ccc2n(Cc2ccc(F)cc2)c1=O`, in series [1], the MIC is over 25 µg/mL.
The same measure, in the same setting: next, `Cc1ccc(NC(=O)c2c(-c3ccccc3)c3cc(Cl)ccc3n(Cc3cc(F)cc(F)c3)c2=O)c(C)c1`: 12.5 µg/mL (≈ 23.6 µM).
In the case of `O=C(NC12CC3CC(CC(C3)C1)C2)c1c(-c2ccccc2)c2ccccc2[nH]c1=O`, the GI50 at 48 h in series [2] amounted to 87.6 µg/mL (≈ 220 µM). This compound returned an MIC in series [1] of 3.12 µg/mL (≈ 7.84 µM). Moreover, the inhibition at 48 h, 25 ug/ml in series [3] was determined as 16.2%.
The like results for `Cc1cc(C)c(NC(=O)c2c(-c3ccccc3)c3cc(Cl)ccc3n(Cc3cccc(F)c3)c2=O)c(C)c1` were, in that order, 93.5 µg/mL (≈ 178 µM), 0.78 µg/mL (≈ 1.49 µM) and 22.4%.
As for `O=C(Nc1ccc(Cl)cc1)c1c(-c2ccccc2)c2cc(Cl)ccc2n(Cc2cccc(F)c2)c1=O`, in series [2], the GI50 at 48 h is 86.8 µg/mL (≈ 168 µM). The compound also returned an MIC in series [1] of 0.39 µg/mL (≈ 0.754 µM). Moreover, the inhibition at 48 h, 25 ug/ml in series [3] was 24.7%.
`Cc1cccc(Cn2c(=O)c(C(=O)Nc3ccc(C(F)(F)F)cc3)c(-c3ccccc3)c3cc(Cl)ccc32)c1`: the MIC in series [1] is over 25 µg/mL.
On the same count and under the same terms, next, `O=C(Nc1ccc(C(F)(F)F)cc1)c1c(-c2ccccc2)c2ccccc2n(Cc2ccccc2)c1=O`: 25 µg/mL (≈ 50.2 µM).
Take `O=C(Nc1ccc(Br)cc1)c1c(-c2ccccc2)c2ccccc2n(Cc2ccccc2)c1=O`: in series [2], the GI50 at 48 h turned out to be 113 µg/mL (≈ 222 µM). In series [1], this compound gave an MIC of 6.25 µg/mL (≈ 12.3 µM). Besides, the inhibition at 48 h, 25 ug/ml in series [3] came out at 14.6%.

(Values after ChEMBL document CHEMBL4270583, “Synthesis and biological evaluation of dihydroquinoline carboxamide derivatives as anti-tubercular agents” (Eur J Med Chem, 2018).)
